Counter-ions that a name gives are not always drawn.

The first experiment concerns Mtb strain H37Rv. Nature of the experiment: Antitubercular activity, OD600 based growth inhibition assay (IC90). As to conditions: Mtb H37Rv, 7 days incubation, growth read by OD600; concentration giving 90% inhibition of growth of the control; read-out: IC90. The class given is cell-based, Mycobacterium tuberculosis.
Turning to `CCOC(=O)Nc1cccc(-c2cc(=O)oc3cc(C)c(-c4ccc(CN5CCOCC5)cc4)c(C)c23)c1` [Compound 43], the IC90 (as a rule, the concentration needed for an effect of 90%) is above 100 µM. Same read-out and setting: the figure for `Cc1cc2oc(=O)cc(-c3ccccc3)c2c(C)c1-c1ccc(CO)cc1` [Compound 50] is above 100 µM; for `Cc1cc2oc(=O)cc(-c3ccccc3)c2c(C)c1-c1ccc(CO)cc1` [Compound 20] it is 0.001 to 10 µM. Regarding `CCOC(=O)Nc1cccc(-c2cc(=O)oc3cc(C)c(-c4ccc(CN5CCOCC5)cc4)c(C)c23)c1` [Compound 12, Ethyl (3-(5,7-dimethyl-6-(4-(morpholinomethyl)phenyl)-2-oxo-2H-chromen-4-yl)phenyl)carbamate], the IC90 was 10 to 50 µM.

The same experiment, now with this note: Mycobacterium tuberculosis, H37RV, 168 h.
`Cc1cc2oc(=O)cc(-c3cccc(N)c3)c2c(C)c1-c1ccc(CN2CCOCC2)cc1` [Compound 6, 4-(3-Aminophenyl)-5,7-dimethyl-6-(4-(morpholinomethyl)phenyl)-2H-chromen-2-one hydrochloride] displayed an IC90 of 0.001 to 10 µM.

Still in this experiment, the particulars now being: Mycobacterium tuberculosis, H37RV, 168 h, Mtb H37Rv, 7 days incubation, growth read by OD600; concentration giving 90% inhibition of growth of the control; read-out: IC90.
Regarding `COc1ccc(-c2c(C)cc3oc(=O)cc(-c4ccccc4)c3c2C)cc1` [Compound 16], the 90% effect concentration (IC90) is above 100 µM. Still for that read-out and setting: the figure for `COc1ncc(-c2c(C)cc3oc(=O)cc(-c4ccccc4)c3c2C)c(OC)n1` [Compound 39] is 10 to 50 µM; for `Cc1ccc(-c2ccc3oc(=O)cc(-c4ccccc4)c3c2)cc1` [Compound 45] it is above 100 µM. The same measure, in the same setting: the result for `COc1ccc(-c2cc(=O)oc3cc(C)c(-c4ccc(CN5CCOCC5)cc4)c(C)c23)cc1` [Compound 44] reads above 100 µM.

On to `Cc1ccc(-c2c(C)cc3oc(=O)cc(-c4ccccc4)c3c2C)cc1` [Compound 15], for which the IC90 lay within 10 to 50 µM.

Consider `Cc1cc(CO)ccc1-c1c(C)cc2oc(=O)cc(-c3ccccc3)c2c1C` [Compound 21], for which the concentration for an effect of 90% (IC90) lay in the range of 10 to 50 µM.

For the compound `COc1ncc(-c2c(C)cc3oc(=O)cc(-c4ccccc4)c3c2C)cn1` [Compound 38], the IC90 was above 100 µM.

Regarding `Cc1cc2oc(=O)cc(-c3ccccc3)c2c(C)c1-c1cccc(C(F)(F)F)c1` [Compound 31], the IC90 was above 100 µM. As for `Cc1cc2oc(=O)cc(-c3ccccc3)c2c(C)c1-c1cccc(Cl)c1` [Compound 26], the concentration for an effect of 90% (IC90) was above 100 µM. On the same count and under the same terms, the result for `O=c1cc(-c2ccccc2)c2cc(-c3ccc(CO)cc3)ccc2o1` [Compound 47] reads above 100 µM; that for `Cc1cc2oc(=O)cc(-c3ccccc3)c2c(C)c1-c1cccnc1` [Compound 37], 50 to 100 µM; that for `Cc1cc2oc(=O)cc(-c3ccccc3)c2c(C)c1-c1ccc(CN2CCOCC2)cc1` [Compound 1, 5,7-Dimethyl-6-(4-(morpholinomethyl)phenyl)-4-phenyl-2H-chromen-2-one], 0.001 to 10 µM. On to `COC(=O)c1cccc(-c2cc(=O)oc3cc(C)c(-c4ccc(CN5CCOCC5)cc4)c(C)c23)c1` [Compound 9, Methyl 3-(5,7-dimethyl-6-(4-(morpholinomethyl)phenyl)-2-oxo-2H-chromen-4-yl)benzoate], for which the IC90 fell in the range of 50 to 100 µM.

Regarding `Cc1cc2oc(=O)cc(-c3ccccc3)c2c(C)c1-c1ccc(C(F)(F)F)cc1` [Compound 30], the IC90 fell in the range of 10 to 50 µM. Still for that read-out and setting: the result for `CCc1ccc(-c2c(C)cc3oc(=O)cc(-c4ccccc4)c3c2C)cc1` [Compound 24] reads above 100 µM. As to `Cc1cc2oc(=O)cc(-c3ccccc3)c2c(C)c1-c1ccc(C(C)O)cc1` (stereo not shown) [Compound 33], the IC90 is 0.001 to 10 µM. Take `COc1cccc(-c2c(C)cc3oc(=O)cc(-c4ccccc4)c3c2C)c1` [Compound 18]: the IC90 fell in the range of 10 to 50 µM. Regarding `Cc1cc2oc(=O)cc(-c3ccccc3)c2c(C)c1-c1ccc(F)cc1` [Compound 28], the IC90 lay in the range of 10 to 50 µM. As for `Cc1cc2oc(=O)cc(-c3ccccc3)c2c(C)c1-c1ccc(CNC2CCCCC2)cc1` [Compound 3, 6-(4-((Cyclohexylamino)methyl)phenyl)-5,7-dimethyl-4-phenyl-2H-chromen-2-one], the concentration for an effect of 90% (IC90) was 0.001 to 10 µM. On the same count and under the same terms, the result for `CC(=O)c1ccc(-c2c(C)cc3oc(=O)cc(-c4ccccc4)c3c2C)cc1` [Compound 32] reads above 100 µM; that for `Cc1cc2oc(=O)cc(-c3ccccc3)c2c(C)c1-c1cnc(C)c2ccccc12` [Compound 40], above 100 µM; that for `CCCCCCNCc1ccc(-c2c(C)cc3oc(=O)cc(-c4ccccc4)c3c2C)cc1` [Compound 4, 6-(4-((Hexylamino)methyl)phenyl)-5,7-dimethyl-4-phenyl-2H-chromen-2-one], 0.001 to 10 µM. For `Cc1cnccc1-c1c(C)cc2oc(=O)cc(-c3ccccc3)c2c1C` [Compound 36], the IC90 lay within 10 to 50 µM. In the case of `Cc1cc2oc(=O)cc(-c3ccccc3)c2c(C)c1-c1ccccc1Cl` [Compound 27], the IC90 lay in the range of 10 to 50 µM. On to `Cc1cc2oc(=O)cc(-c3ccccc3)c2c(C)c1-c1cccc(F)c1` [Compound 29], for which the IC90 fell in the range of 10 to 50 µM. Turning to `C=Cc1ccc(-c2c(C)cc3oc(=O)cc(-c4ccccc4)c3c2C)cc1` [Compound 23], the IC90 is above 100 µM. `Cc1cc2oc(=O)cc(-c3cccc(NS(C)(=O)=O)c3)c2c(C)c1-c1ccc(CN2CCOCC2)cc1` [Compound 11, N-(3-(5,7-dimethyl-6-(4-(morpholinomethyl)phenyl)-2-oxo-2H-chromen-4-yl)phenyl)methanesulfonamide]: the IC90 lay in the range of 50 to 100 µM. For `Cc1cc2oc(=O)cc(-c3ccccc3)c2c(C)c1-c1ccncc1` [Compound 35], the IC90 was in the range of 0.001 to 10 µM. Take `Cc1cc2oc(=O)cc(-c3ccccc3)c2c(C)c1-c1ccc(C#N)cc1` [Compound 14]: the IC90 was above 100 µM. The same measure, in the same setting: the result for `Cc1ccc(/C=C/c2c(C)cc3oc(=O)cc(-c4ccccc4)c3c2C)cc1` [Compound 42] reads 50 to 100 µM; that for `Cc1c(-c2ccc(CO)cc2)ccc2oc(=O)cc(-c3ccccc3)c12` [Compound 49], 50 to 100 µM; that for `Cc1cc2oc(=O)cc(-c3ccccc3)c2c(C)c1-c1ccc(CS)cc1` [Compound 22], above 100 µM.

As for `Cc1cc2oc(=O)cc(-c3cccc([N+](=O)[O-])c3)c2c(C)c1-c1ccc(CN2CCOCC2)cc1` [Compound 8, 5,7-Dimethyl-6-(4-(morpholinomethyl)phenyl)-4-(3-nitrophenyl)-2H-chromen-2-one], the IC90 was in the range of 0.001 to 10 µM. Turning to `Cc1cc2oc(=O)cc(-c3cccnc3)c2c(C)c1-c1ccc(CN2CCOCC2)cc1` [Compound 13, 5,7-Dimethyl-6-(4-(morpholinomethyl)phenyl)-4-(pyridin-3-yl)-2H-chromen-2-one], the IC90 fell in the range of 0.001 to 10 µM. With `CNC(=O)c1ccc(-c2c(C)cc3oc(=O)cc(-c4ccccc4)c3c2C)cc1` [Compound 34], the IC90 was 0.001 to 10 µM. For the compound `CC(=O)Nc1cccc(-c2cc(=O)oc3cc(C)c(-c4ccc(CN5CCOCC5)cc4)c(C)c23)c1` [Compound 10, N-(3-(5,7-dimethyl-6-(4-(morpholinomethyl)phenyl)-2-oxo-2H-chromen-4-yl)phenyl)acetamide], the IC90 was 10 to 50 µM.

Regarding `COc1ccccc1-c1c(C)cc2oc(=O)cc(-c3ccccc3)c2c1C` [Compound 17], the IC90 was above 100 µM.

As to `Cc1cc2oc(=O)cc(-c3ccc(N)cc3)c2c(C)c1-c1ccc(CN2CCOCC2)cc1` [Compound 7, 4-(4-Aminophenyl)-5,7-dimethyl-6-(4-(morpholinomethyl)phenyl)-2H-chromen-2-one], the IC90 fell in the range of 10 to 50 µM.

`Cc1cc2oc(=O)cc(-c3ccccc3)c2c(C)c1-c1ccc(Cl)cc1` [Compound 25]: the IC90 lay in the range of 50 to 100 µM. As to `Cc1cc2oc(=O)cc(-c3ccccc3)c2c(C)c1-c1ccc(O)cc1` [Compound 19], the IC90 was above 100 µM.

Take `Cc1cc2oc(=O)cc(-c3ccccc3)c2c(C)c1-c1cncnc1` [Compound 41]: the IC90 fell in the range of 0.001 to 10 µM.

Turning to `Cc1cc2oc(=O)cc(-c3ccccc3)c2c(C)c1-c1ccc(CN2CCCCC2)cc1` [Compound 2, 5,7-Dimethyl-4-phenyl-6-(4-(piperidine-1-ylmethyl)phenyl)-2H-chromen-2-one], the IC90 was in the range of 10 to 50 µM. As to `Cc1cc2oc(=O)cc(-c3ccccc3)c2cc1-c1ccc(CO)cc1` [Compound 48], the IC90 lay within 50 to 100 µM.

Regarding `Cc1cc2oc(=O)cc(-c3ccccc3)c2c(C)c1-c1ccc(CN2CCN(C)CC2)cc1` [Compound 5, 5,7-Dimethyl-6-(4-((4-methylpiperazin-1-yl)methyl)phenyl)-4-phenyl-2H-chromen-2-one], the IC90 lay in the range of 0.001 to 10 µM.

For the origin of these results see patent publication US10766872B2, “Compounds for the treatment of mycobacterial infections” (The Broad Institute, Inc., priority 2011, dated 2020).
